{
  "source": "ChEMBL document CHEMBL3044864",
  "about": "“Synthesis and in vitro anticancer activities of novel aryl-naphthalene lignans” (Med Chem Res, 2012)",
  "key": {"KB [1]": {"system": "KB", "experiment": "Cytotoxicity against Homo sapiens (human) KB cells after 72 hr by MTT assay", "assay_type": "functional, cell-based"}, "SW480": {"system": "SW480", "experiment": "Cytotoxicity against Homo sapiens (human) SW480 cells after 72 hr by MTT assay", "assay_type": "functional, cell-based", "conditions": "SW480, 72 h"}, "A549": {"system": "A549", "experiment": "Cytotoxicity against Homo sapiens (human) A549 cells after 72 hr by MTT assay", "assay_type": "functional, cell-based", "conditions": "A549, 72 h"}, "KB [2]": {"system": "KB", "experiment": "Induction of apoptosis in Homo sapiens (human) KB cells assessed as downregulation of bcl2 expression at 5 to 15 uM after 72 hr by Western blot analysis", "assay_type": "functional, cell-based"}, "KB [3]": {"system": "KB", "experiment": "Induction of apoptosis in Homo sapiens (human) KB cells assessed as upregulation of bax expression at 5 to 15 uM after 72 hr by Western blot analysis", "assay_type": "functional, cell-based"}, "KB [4]": {"system": "KB", "experiment": "Induction of apoptosis in Homo sapiens (human) KB cells assessed as nuclear condensation at 5 to 10 uM after 72 hr using Hoechst/PI staining by fluorescence microscopy", "assay_type": "functional, cell-based"}, "KB [5]": {"system": "KB", "experiment": "Induction of apoptosis in Homo sapiens (human) KB cells assessed as increase in cleaved caspase 3 level after 72 hr by Western blot analysis", "assay_type": "functional, cell-based"}, "KB [6]": {"system": "KB", "experiment": "Induction of apoptosis in Homo sapiens (human) KB cells assessed as appearance of apoptotic bodies n at 5 to 10 uM after 72 hr using AO/EB staining by fluorescence microscopy", "assay_type": "functional, cell-based"}, "KB [7]": {"system": "KB", "experiment": "Induction of apoptosis in Homo sapiens (human) KB cells assessed as nuclear fragmentation at 5 to 10 uM after 72 hr using AO/EB staining by fluorescence microscopy", "assay_type": "functional, cell-based"}, "KB [8]": {"system": "KB", "experiment": "Induction of apoptosis in Homo sapiens (human) KB cells assessed as early apoptic cells with nuclear condensation at 5 to 10 uM after 72 hr using AO/EB staining by fluorescence microscopy", "assay_type": "functional, cell-based"}, "Leishmania": {"system": "Leishmania", "experiment": "Antileishmanial activity against Leishmania promastigotes", "assay_type": "functional, organism-based"}, "[9]": {"experiment": "Antiproliferative activity against Homo sapiens (human) monocytes", "assay_type": "cell-based", "conditions": "Monocyte"}},
  "note": "pIC50: −log10 of the molar value. Calls of active or inactive are those of the source. The calls are words filed in the database; no cut-off is given here.",
  "data": [
    {"smiles": "O=C1OCc2c1c(-c1ccccc1)c1cc3c(cc1c2O)OCO3", "values": [
      {"measurement": "pIC50", "setting": "KB [1]", "value": "< 4.00"},
      {"measurement": "pIC50", "setting": "SW480", "value": "< 4.00"},
      {"measurement": "pIC50", "setting": "A549", "value": "< 4.00"}
    ]},
    {"smiles": "COc1ccc(-c2c3c(c(O)c4cc5c(cc24)OCO5)COC3=O)cc1OC", "values": [
      {"measurement": "pIC50", "setting": "KB [1]", "value": 4.34},
      {"measurement": "pIC50", "setting": "SW480", "value": "< 4.00"},
      {"measurement": "pIC50", "setting": "A549", "value": 4.40}
    ]},
    {"smiles": "COc1cc(-c2c3c(c(O)c4cc5c(cc24)OCO5)COC3=O)cc(OC)c1OC", "note": "[DEHYDROPODOPHYLLOTOXIN]", "values": [
      {"measurement": "pIC50", "setting": "KB [1]", "value": 4.54},
      {"measurement": "pIC50", "setting": "SW480", "value": "< 4.00"},
      {"measurement": "pIC50", "setting": "A549", "value": 3.97}
    ]},
    {"smiles": "COc1cc(OC)cc(-c2c3c(c(O)c4cc5c(cc24)OCO5)COC3=O)c1", "values": [
      {"measurement": "pIC50", "setting": "KB [1]", "value": 4.48},
      {"measurement": "pIC50", "setting": "SW480", "value": "< 4.00"},
      {"measurement": "pIC50", "setting": "A549", "value": "< 4.00"}
    ]},
    {"smiles": "O=C1OCc2c1c(-c1ccc3c(c1)OCO3)c1cc3c(cc1c2O)OCO3", "note": "[TAIWANIN E]", "values": [
      {"measurement": "pIC50", "setting": "KB [1]", "value": 4.71},
      {"measurement": "pIC50", "setting": "SW480", "value": "< 4.00"},
      {"measurement": "pIC50", "setting": "A549", "value": 4.27}
    ]},
    {"smiles": "COc1cc([C@@H]2c3cc4c(cc3[C@@H](O[C@@H]3O[C@@H]5CO[C@@H](C)O[C@H]5[C@H](O)[C@H]3O)[C@H]3COC(=O)[C@H]23)OCO4)cc(OC)c1O", "note": "[ETOPOSIDE]", "values": [
      {"measurement": "pIC50", "setting": "KB [1]", "value": 5.08},
      {"measurement": "pIC50", "setting": "SW480", "value": 5.19},
      {"measurement": "pIC50", "setting": "A549", "value": 5.41}
    ]},
    {"smiles": "COc1ccccc1-c1c2c(c(O)c3cc4c(cc13)OCO4)COC2=O", "values": [
      {"measurement": "pIC50", "setting": "KB [1]", "value": "< 4.00"},
      {"measurement": "pIC50", "setting": "SW480", "value": 4.68},
      {"measurement": "pIC50", "setting": "A549", "value": "< 4.00"}
    ]},
    {"smiles": "Cc1ccc(-c2c3c(c(O)c4cc5c(cc24)OCO5)COC3=O)cc1", "values": [
      {"measurement": "Activity", "setting": "KB [2]", "value": "Active"},
      {"measurement": "Activity", "setting": "KB [3]", "value": "Active"},
      {"measurement": "Activity", "setting": "KB [4]", "value": "Active"},
      {"measurement": "Activity", "setting": "KB [5]", "value": "Dose-dependent effect"},
      {"measurement": "Activity", "setting": "KB [6]", "value": "Active"},
      {"measurement": "Activity", "setting": "KB [7]", "value": "Active"},
      {"measurement": "Activity", "setting": "KB [8]", "value": "Active"},
      {"measurement": "pIC50", "setting": "KB [1]", "value": 4.72},
      {"measurement": "pIC50", "setting": "SW480", "value": 5.40},
      {"measurement": "pIC50", "setting": "A549", "value": 4.52}
    ]},
    {"smiles": "COc1ccc(OC)c(-c2c3c(c(O)c4cc5c(cc24)OCO5)COC3=O)c1", "values": [
      {"measurement": "pIC50", "setting": "KB [1]", "value": "< 4.00"},
      {"measurement": "pIC50", "setting": "SW480", "value": "< 4.00"},
      {"measurement": "pIC50", "setting": "A549", "value": "< 4.00"}
    ]},
    {"smiles": "COc1cccc(-c2c3c(c(O)c4cc5c(cc24)OCO5)COC3=O)c1", "values": [
      {"measurement": "pIC50", "setting": "KB [1]", "value": "< 4.00"},
      {"measurement": "pIC50", "setting": "SW480", "value": "< 4.00"},
      {"measurement": "pIC50", "setting": "A549", "value": 4.16}
    ]},
    {"smiles": "COc1cc2c(O)c3c(c(-c4ccc5c(c4)OCO5)c2cc1OC)C(=O)OC3", "note": "[DIPHYLLIN]", "values": [
      {"measurement": "pIC50", "setting": "Leishmania", "value": 4.84},
      {"measurement": "pIC50", "setting": "[9]", "value": 4.45},
      {"measurement": "pIC50", "setting": "KB [1]", "value": 5.28},
      {"measurement": "pIC50", "setting": "SW480", "value": 5.47},
      {"measurement": "pIC50", "setting": "A549", "value": 5.10}
    ]},
    {"smiles": "COc1ccc(-c2c3c(c(O)c4cc5c(cc24)OCO5)COC3=O)cc1", "values": [
      {"measurement": "pIC50", "setting": "KB [1]", "value": "< 4.00"},
      {"measurement": "pIC50", "setting": "SW480", "value": "< 4.00"},
      {"measurement": "pIC50", "setting": "A549", "value": 4.45}
    ]}
  ]
}
